Measurements reported in patent US8802675B2, “Neuroprotective multifunctional compounds and pharmaceutical compositions comprising them” (priority 2009, dated 2014).
Values joined by “and” are separate entries in the source; they are usually repeats but may differ in a detail not shown here. Equal values may be shown once. Read-outs that look alike come from different tables or passages of the source.

Key:
rat brain MAO-A = target: T1, rat brain MAO-A (Rattus norvegicus, UniProt P21396); assay: biochemical
T1 construct: from tissue; host or cells: rat brain homogenate
T1 sequence (P21396 1-526): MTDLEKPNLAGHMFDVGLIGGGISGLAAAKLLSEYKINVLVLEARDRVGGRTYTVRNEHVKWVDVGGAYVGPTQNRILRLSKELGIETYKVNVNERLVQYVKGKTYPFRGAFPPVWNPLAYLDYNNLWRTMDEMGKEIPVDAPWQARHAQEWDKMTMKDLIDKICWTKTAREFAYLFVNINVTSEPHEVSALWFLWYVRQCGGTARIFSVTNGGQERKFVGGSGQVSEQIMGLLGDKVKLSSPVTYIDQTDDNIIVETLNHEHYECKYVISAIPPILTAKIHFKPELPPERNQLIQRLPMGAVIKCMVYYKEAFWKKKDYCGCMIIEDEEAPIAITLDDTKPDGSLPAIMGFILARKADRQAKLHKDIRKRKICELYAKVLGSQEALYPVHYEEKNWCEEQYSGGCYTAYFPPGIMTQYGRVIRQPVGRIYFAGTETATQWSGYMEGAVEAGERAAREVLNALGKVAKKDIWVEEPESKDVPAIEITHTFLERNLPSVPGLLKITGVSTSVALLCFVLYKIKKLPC
Description: (§1) Rats were decapitated and the brains were quickly taken into a pre-weighted ice-cold sucrose buffer (10 mM Tris-HCl buffer, pH 7.4, containing 0.32 M sucrose), and their weights were measured. The brains were homogenized at 0-4° C. in 0.32 M sucrose (one part tissue to 20 parts sucrose) in a Teflon glass homogenizer. The resultant homogenates were used to determine MAO activity. Protein concentration was determined with Bradford reagent at 595 nm, using bovine serum albumin as a standard.
(§2) The activity of MAO-A and MAO-B were determined by the adapted method of Tipton & Youdim (Tipton et al. 1983). Briefly, the multifunctional compound tested was added to a suitable dilution of the enzyme preparation (70 μg MAO-B and 150 μg MAO-A) in 0.05 M phosphate buffer (pH 7.4). The mixture was incubated together with 0.05 μM 1-deprenyl, a specific inhibitor of MAO-B (for determination of MAO-A activity in the presence of the test compound) or 0.05 μM clorgyline a specific inhibitor of MAO-A (for determination of MAO-B activity). […] The reaction was stopped with 2M ice-cold citric acid, and the radioactive metabolites (5-hydroxytryptaldehyde and phenylacetaldehyde) were extracted by addition of 2 ml of ethylacetate/toluene (1:1 vol/vol). The radioactivity contained in the organic phase was determined by liquid-scintillation counting in cpm units.
(§3) MAO-A and MAO-B activities were determined in rat brain homogenate in vitro following incubation with varying concentrations of the test compounds.
(§4) The results are the mean SEM, n=3 in triplicates.

rat brain MAO-B = target: T2, rat brain MAO-B (Rattus norvegicus, UniProt P19643); assay: biochemical; settings: for inhibition at 10 µM: read-out: percent inhibition MAO-B
T2 construct: from tissue; host or cells: rat brain homogenate
T2 sequence (P19643 1-520): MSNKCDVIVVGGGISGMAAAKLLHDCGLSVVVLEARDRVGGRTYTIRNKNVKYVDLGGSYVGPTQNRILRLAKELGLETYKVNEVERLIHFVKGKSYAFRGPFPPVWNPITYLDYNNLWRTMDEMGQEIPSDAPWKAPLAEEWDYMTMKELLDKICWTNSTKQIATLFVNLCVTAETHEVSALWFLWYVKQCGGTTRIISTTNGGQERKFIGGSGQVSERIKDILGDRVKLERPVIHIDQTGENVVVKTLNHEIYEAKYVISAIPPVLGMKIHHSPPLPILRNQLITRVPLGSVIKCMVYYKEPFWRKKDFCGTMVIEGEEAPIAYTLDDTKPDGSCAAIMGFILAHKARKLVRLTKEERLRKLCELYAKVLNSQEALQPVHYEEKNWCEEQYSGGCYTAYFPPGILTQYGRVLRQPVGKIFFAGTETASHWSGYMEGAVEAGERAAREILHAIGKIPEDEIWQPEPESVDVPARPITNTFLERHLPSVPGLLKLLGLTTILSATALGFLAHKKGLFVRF
Description: as §1, §2, §3, §4

[1] = Metal chelation assay (UV-vis spectra of metal complexes); format: physicochemical; settings: 5% NH4Ac, pH=7; for complexation with Cu^2+ or Zn^2+: CuSO4 or ZnCl2, UV-vis; for interaction with Fe: FeCl3 or FeSO4, absorbance at 300 nm
From the text: Metal chelation, particularly iron chelation, is an important precondition for the antioxidative-function of the multi-functional compounds of the invention, because it is the excessive iron stores and iron-mediated generation of free radicals in the brain that are thought to be associated with neurodegenerative diseases. The novel strategy, according to the present invention, for the treatment of neurodegenerative diseases such as Alzheimer's disease is the design of pro-chelators that inhibit AChE with a concomitant release of the active chelators. This novel strategy has advantages over the current chelator strategy since it is capable not only of minimizing the potential toxicity associated with strong chelators such as the 8-hydroxyquinoline derivatives disclosed in WO 2004/041151, which might interfere with healthy metal metabolism in the brain, but it also offers multiple activities against AChE, Aβ aggregation, oxidative stress, and metal (Fe, Cu, Zn) dyshomeostasis in the brain. Therefore, a metal chelation assay was used to confirm that the new multifunctional pro-chelators that comprise an N,N-dialkylcarbamoyl moiety [N(RR′)CO—] linked to the oxygen at position 8 of quinoline would have little to no affinity for metal ions in their pro-drug form. When these pro-chelators bind to cholinesterase or AChE in the brain, the N,N-dialkylcarbamoyl moiety is dissociated, thus unmasking a free hydroxyl group at said position 8 of quinoline, turning the pro-chelators into active chelators, which passivate excess cerebral metal ions and protect neuronal cells against reactive oxygen species (ROS).
A spectrophotometric method was used for measurement of metal complexes of the multifunctional pro-chelators of the invention with metal ions selected from Zn^2+, Cu^2+, Fe^3+ and Fe^2+, and compared to the respective metal complexes of some known iron chelators disclosed in WO 2004/041151.
Thus, the metal chelating function of compound 13 and compound 23 as compared to M30 and HLA20, respectively, was measured by dissolving 0.1 mM or 0.2 mM of the test compounds in 5% NH4Ac, pH=7, in the presence and absence of 0.1 mM or 0.2 mM of the metal salts […], CuSO4, FeCl3 and FeSO4, and measuring the UV-vis spectra (Hewlett-Packard 8450A diode array spectrophotometer) of the various metal complexes formed. The results for M30 and compound 13 are shown in FIGS. 1A and 1B, respectively.

[2] = IC50 MAO-A, rat brain homogenate in vitro, mean SEM, n=3 in triplicates
[3] = IC50 MAO-B, rat brain homogenate in vitro, mean SEM, n=3 in triplicates

Structure (SMILES) | IC50 (rat brain MAO-A; [2]) | inhibition at 10 µM (rat brain MAO-B) | IC50 (rat brain MAO-B; [3]) | complexation with Cu^2+ or Zn^2+ [1] | interaction with Fe [1] | further results
C#CCN(C)Cc1ccc(OC(=O)N(C)CC)c2ncccc12 [Compound 3, 5-((methyl(propargyl)amino)methyl)quinolin-8-yl ethyl(methyl)carbamate] | < 100 nM | 9% |  |  |  | 
C#CCN(C)Cc1ccc(OC(=O)N2CCCC2)c2ncccc12 [Compound 5, 5-((methyl(propargyl)amino)methyl)quinolin-8-yl pyrrolidine-1-carboxylate] | 4.7 to 20 nM and 4.9 nM |  | 5060 nM and 5600 nM |  |  | 
C#CCN(C)Cc1ccc(OC(=O)N2CCN(Cc3ccccc3)CC2)c2ncccc12 [Compound 13, 5-((methyl(propargyl)amino)methyl)quinolin-8-yl 4-benzyl piperazine-1-carboxylate] | 4.7 to 20 nM and 20 nM |  | 84 nM | little or no complexation | weak interaction | 
C#CCC1CCN(Cc2ccc(OC(=O)N(C)C)c3ncccc23)CC1 [Compound 23, 5-((4-(propargyl)piperidin-1-yl)methyl)quinolin-8-yl dimethylcarbamate] |  | 3% |  | little or no complexation | weak interaction | inhibitory effect on MAO-A (rat brain MAO-A; rat brain homogenate): minor to none inhibitory effects; inhibition at 10 µM (rat brain MAO-A; read-out: percent inhibition MAO-A): 13%; inhibitory effect on MAO-B (rat brain MAO-B; rat brain homogenate): minor to none inhibitory effects
C#CCN(C)Cc1ccc(O)c2ncccc12 [M30, reference compound] |  |  |  |  |  | IC50 (rat brain MAO-A): 37 ± 20 nM; IC50 (rat brain MAO-B): 57 ± 10 nM; binding of metal ions (shift of absorbance peak) ([1]; ZnCl2, CuSO4, FeCl3 and FeSO4): binds the respective metal ions
